Source: US12263155B2, “Combinations of monoamine oxidase inhibitors and serotonin receptor agonists and their therapeutic use” (Remedi, Inc., priority 2022, dated 2025)

Legend:
[1] = Description: Methods: The trial was a Phase 1, single center, double-blind, placebo-controlled, sequential group, acute dose escalation study of the safety and pharmacokinetics of seven (7) CX157 dose levels in healthy male volunteers. Each of the seven (7) dose groups consisted of six (6) subjects, with the exception of cohort 2 (CX157 10 mg or placebo) which enrolled only five (5) subjects. Within each dose group, four (4) subjects were randomized to CX157 and two (2) subjects to placebo. Subjects were normal healthy volunteers confined to the study center for approximately 4 days, beginning approximately 16 hours before exposure to study drug and ending approximately 48 hours after exposure to study drug. Safety and tolerability was assessed for each dose group by the Principal Investigator before advancing to the next scheduled dose group. CX157 was administered as a fully solubilized microemulsion in Labrasol™
[2] = target: T1, MAO-B (Homo sapiens, UniProt P27338)
T1 sequence (P27338 1-520): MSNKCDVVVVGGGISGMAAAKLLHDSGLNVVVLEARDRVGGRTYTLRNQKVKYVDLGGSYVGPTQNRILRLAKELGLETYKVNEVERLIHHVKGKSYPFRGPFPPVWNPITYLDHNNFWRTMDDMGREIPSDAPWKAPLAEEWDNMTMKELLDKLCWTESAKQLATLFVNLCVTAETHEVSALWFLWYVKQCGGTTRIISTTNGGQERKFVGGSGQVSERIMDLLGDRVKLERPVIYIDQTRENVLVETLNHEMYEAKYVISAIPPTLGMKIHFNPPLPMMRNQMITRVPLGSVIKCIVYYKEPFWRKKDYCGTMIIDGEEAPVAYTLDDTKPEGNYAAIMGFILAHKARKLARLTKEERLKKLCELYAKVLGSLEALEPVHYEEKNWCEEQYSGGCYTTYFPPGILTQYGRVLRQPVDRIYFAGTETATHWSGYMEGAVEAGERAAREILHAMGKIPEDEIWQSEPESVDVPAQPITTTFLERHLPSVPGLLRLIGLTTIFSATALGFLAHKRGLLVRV

[3] = Plasma and brain CX157 concentrations after oral dosing in rats; conditions: rat; for Kp at 2 h / Kp at 4 h / Kp at 8 h / Kp at 18 h / Kp at 24 h / concentration at 0 h / concentration at 2 h / concentration at 4 h / concentration at 8 h / concentration at 18 h / concentration at 24 h: male, Sprague-Dawley, po
[4] = target: T2, MAO-A (Homo sapiens, UniProt P21397); conditions: cited from earlier work
T2 sequence (P21397 1-527): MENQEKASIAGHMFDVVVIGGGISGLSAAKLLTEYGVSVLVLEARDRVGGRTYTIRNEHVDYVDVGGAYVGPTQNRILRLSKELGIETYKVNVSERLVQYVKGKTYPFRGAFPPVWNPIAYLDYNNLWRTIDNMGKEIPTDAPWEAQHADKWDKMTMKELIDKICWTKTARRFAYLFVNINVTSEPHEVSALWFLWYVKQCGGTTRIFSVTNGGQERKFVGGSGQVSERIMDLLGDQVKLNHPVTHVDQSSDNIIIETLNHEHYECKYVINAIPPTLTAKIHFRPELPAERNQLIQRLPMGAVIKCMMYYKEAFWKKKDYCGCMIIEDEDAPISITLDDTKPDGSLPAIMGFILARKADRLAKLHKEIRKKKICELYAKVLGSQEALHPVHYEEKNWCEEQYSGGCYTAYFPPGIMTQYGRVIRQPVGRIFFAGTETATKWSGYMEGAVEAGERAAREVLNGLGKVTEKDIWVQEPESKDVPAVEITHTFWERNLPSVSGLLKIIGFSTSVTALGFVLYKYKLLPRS

[5] = brain and plasma, 5 mg/kg, mean brain/plasma ratio of CX157 concentrations, 5 mg/kg oral
[6] = brain and plasma, 10 mg/kg, mean brain/plasma ratio of CX157 concentrations, 10 mg/kg oral
[7] = brain/plasma, 1 mg/kg, mean brain/plasma ratio of CX157 concentrations, 1 mg/kg oral

With `O=S1(=O)c2ccc(F)cc2Oc2cc(OCC(F)(F)F)ccc21` [CX157, 3-fluoro-7(2,2,2-trifluorethoxy)phenoxathiine-10,10-dioxide] the “percent of subjects experiencing adverse events” value ([1]; all CX157 groups, single doses) was 89%, the safety and tolerability ([1]; healthy volunteers, single dose escalation) was “safe and well tolerated” and the “selectivity for MAO-A inhibition over MAO-B inhibition” value ([2]; human brain homogenates) was over 1000 fold. For the same molecule, the MAO-B inhibition ([2]; tested concentration 10 μM) was “no detectable MAO-B inhibition”, the Kp at 2 h [3, 5] was 2.5 and the Kp at 4 h ([3]; brain and plasma, 5 mg/kg, mean brain/plasma ratio of CX157 concentrations, 5 mg/kg oral, 4 h) was 2.2. For the same molecule, the Kp at 8 h [3, 5] was 5, the Kp at 18 h [3, 5] was 3.7 and the Kp at 24 h [3, 5] was 7.4. The Kp at 2 h [3, 6] was 3.1, the Kp at 4 h ([3]; brain and plasma, 10 mg/kg, mean brain/plasma ratio of CX157 concentrations, 10 mg/kg oral, 4 h) was 1.9 and the Kp at 8 h [3, 6] was 2.2. For the same molecule, the Kp at 18 h [3, 6] was 7.2, the Kp at 24 h [3, 6] was 8.5 and the concentration at 0 h ([3]; brain, 1 mg/kg) was 0 ng/mL. For the same molecule, the concentration at 2 h ([3]; brain, 1 mg/kg) was 103 ng/mL, the concentration at 4 h ([3]; brain, 1 mg/kg) was 71.7 ng/mL and the concentration at 8 h ([3]; brain, 1 mg/kg) was 76.5 ng/mL. It also gave a concentration at 18 h ([3]; brain, 1 mg/kg) of 17.3 ng/mL, a concentration at 24 h ([3]; brain, 1 mg/kg) of 13.2 ng/mL and a concentration at 0 h ([3]; brain, 5 mg/kg) of 0 ng/mL. It also gave a concentration at 2 h ([3]; brain, 5 mg/kg) of 447 ng/mL, a concentration at 4 h ([3]; brain, 5 mg/kg) of 386 ng/mL and a concentration at 8 h ([3]; brain, 5 mg/kg) of 535 ng/mL. It also gave a concentration at 18 h ([3]; brain, 5 mg/kg) of 140 ng/mL, a concentration at 24 h ([3]; brain, 5 mg/kg) of 85.8 ng/mL and a concentration at 0 h ([3]; brain, 10 mg/kg) of 0 ng/mL. For the same molecule, the concentration at 2 h ([3]; brain, 10 mg/kg) was 387 ng/mL, the concentration at 4 h ([3]; brain, 10 mg/kg) was 513 ng/mL and the concentration at 8 h ([3]; brain, 10 mg/kg) was 540 ng/mL. The concentration at 18 h ([3]; brain, 10 mg/kg) was 56.6 ng/mL, the concentration at 24 h ([3]; brain, 10 mg/kg) was 86.6 ng/mL and the Kp at 4 h ([3]; brain/plasma, 1 mg/kg, brain concentration higher than plasma concentration, e.g. 4 hours after a 1 mg/kg oral dose) was at most 10. For the same molecule, the Kp at 2 h [3, 7] was 7.4, the Kp at 4 h ([3]; brain/plasma, 1 mg/kg, mean brain/plasma ratio of CX157 concentrations, 1 mg/kg oral, 4 h) was 10.3 and the Kp at 8 h [3, 7] was 6.5. For the same molecule, the Kp at 18 h [3, 7] was 5.7, the Kp at 24 h [3, 7] was 4.8 and the concentration at 0 h ([3]; plasma, 1 mg/kg) was 0 ng/mL. It also gave a concentration at 2 h ([3]; plasma, 1 mg/kg) of 20 ng/mL, a concentration at 4 h ([3]; plasma, 1 mg/kg) of 9.9 ng/mL and a concentration at 8 h ([3]; plasma, 1 mg/kg) of 13.4 ng/mL. It also gave a concentration at 18 h ([3]; plasma, 1 mg/kg) of 4.5 ng/mL, a concentration at 24 h ([3]; plasma, 1 mg/kg) of 3.2 ng/mL and a concentration at 0 h ([3]; plasma, 5 mg/kg) of 0 ng/mL. It also gave a concentration at 2 h ([3]; plasma, 5 mg/kg) of 184 ng/mL, a concentration at 4 h ([3]; plasma, 5 mg/kg) of 214 ng/mL and a concentration at 8 h ([3]; plasma, 5 mg/kg) of 189 ng/mL. It also gave a concentration at 18 h ([3]; plasma, 5 mg/kg) of 26.8 ng/mL, a concentration at 24 h ([3]; plasma, 5 mg/kg) of 14.3 ng/mL and a concentration at 0 h ([3]; plasma, 10 mg/kg) of 0 ng/mL. It also gave a concentration at 2 h ([3]; plasma, 10 mg/kg) of 158 ng/mL, a concentration at 4 h ([3]; plasma, 10 mg/kg) of 412 ng/mL and a concentration at 8 h ([3]; plasma, 10 mg/kg) of 257 ng/mL. For the same molecule, the concentration at 18 h ([3]; plasma, 10 mg/kg) was 8.5 ng/mL, the concentration at 24 h ([3]; plasma, 10 mg/kg) was 5.4 ng/mL and the blood-brain-barrier penetration ([3]; oral) was “penetrated the blood-brain-barrier”. The “time of maximum plasma levels” value ([3]; oral 1, 5, 10 mg/kg) was “two to four hours”, the “pharmacokinetic half-life in brain versus plasma” value ([3]; oral, particularly 10 mg/kg) was “longer pharmacokinetic half-life in the brain than in plasma” and the “potency for MAO-A inhibition relative to moclobemide” value [4] was “more than 100 times”.
